We go through 8 compounds from patent publication EP0482657A2, “Cephem compounds, their production and use” (Takeda Chemical Industries, Ltd., priority 1990, dated 1992).

Structures are written as SMILES.

Assay [1] has as its system Staphylococcus aureus 308A-1. Kind of assay: Therapeutic effects against intraperitoneal infections in mice (oral administration). The assay is classed as in vivo. To be noted: 308A1, po, 120 h; Slc:ICR mice infected intraperitoneally with Staphylococcus aureus 308A-1; once orally immediately after infection; survival over five days; Reed and Münch; in terms of potency of the said cephem carboxylic acid. The procedure: (§1) Infections in Mice. Test animals: Slc : ICR, 4-week old male mice (body weight 20 to 22 g) were employed. Induction of experimental infections (infected mice):
(§2) Staphylococcus aureus 308A-1 or Escherichia coli 0-111 was cultured in Brain Heart Infusion broth (manufactured by Difco Co.) at 37°C for 20 hours. Each of the organisms was suspended in a 8% mucin solution (manufactured by Difco in) at a concentration of 2 x 10⁸ Colony Forming Units (hereinafter abbreviated as "CFU")/ml and 2 x 10⁵ CFU/ml, respectively, and 0.5 ml of each suspension was administered intraperitoneally. Administration of Test compounds: 25 mg of each test compound was dissolved in 0.5 ml of DMSO, and each solution was diluted in distilled water to prepare two fold dilutions of each compound in the range of 2.5 mg/ml - 0.156 mg/ml in the case of infection with Staphylococcus aureus and in the range of 0.156 mg/ml - 0.01 mg/ml in the case of infection with Escherichia coli. A volume of 0.2 ml of each dilution was once administered orally using a tube into the stomach of five mice each in each group immediately after the infection. […] The ED₅₀ value of each compound was that in terms of the potency of the said cephem carboxylic acid.

Another assay relates to Escherichia coli O-111. The assay is described as above. The following applies: O111, po, 120 h; Slc:ICR mice infected intraperitoneally with Escherichia coli O-111; once orally immediately after infection; survival over five days; Reed and Münch; in terms of potency of the said cephem carboxylic acid. In kind it is in vivo. Here is the method: as §1, §2

Turning to `Cc1nnc(SCC2=C(C(=O)OC(C)OC(=O)OC(C)C)N3C(=O)[C@@H](NC(=O)/C(=N\O)c4csc(N)n4)[C@H]3SC2)s1` (single isomer, unassigned) [Ex.1, 1-(Isopropoxycarbonyloxy)ethyl 7β-[2-(2-aminothiazol-4-yl)-(Z)-2-hydroxyiminoacetamido]-3-[(2-methyl-1,3,4-thiazol-5-yl)thiomethyl]-3-cephem-4-carboxylate], the values for the ED50 (in assay [1]; with Escherichia coli O-111) were 7.02 mg/kg and 0.141 mg/kg, respectively.

`Cc1nnc(SCC2=C(C(=O)OC(C)OC(=O)OC(C)C)N3C(=O)[C@@H](NC(=O)/C(=N\O)c4csc(N)n4)[C@H]3SC2)s1.Cl` (stereo partly drawn) [Ex.2, 1-(Isopropoxycarbonyloxy)ethyl 7β-[2-(2-aminothiazol-4-yl)-(Z)-2-hydroxyiminoacetamido]-3-[(2-methyl-1,3,4-thiadiazol-5-yl)thiomethyl]-3-cephem-4-carboxylate hydrochloride]: the ED50 in assay [1] was 5.57 mg/kg; in the assay with Escherichia coli O-111 it was 0.13 mg/kg.

For `Cc1nnc(SCC2=C(C(=O)OC(C)OC(=O)OC3CCCC3)N3C(=O)[C@@H](NC(=O)/C(=N\O)c4csc(N)n4)[C@H]3SC2)s1` (stereo partly drawn) [Ex.3, 1-(Cyclopentyloxycarbonyloxy)ethyl 7β-[2-(2-aminothiazol-4-yl)-(Z)-2-hydroxyiminoacetamido]-3-[(2-methyl-1,3,4-thiadiazol-5-yl)thiomethyl]-3-cephem-4-carboxylate], the figures for the ED50 (in assay [1]; with Escherichia coli O-111) were 8.84 mg/kg and 0.13 mg/kg, respectively.

Take `Cc1nnc(SCC2=C(C(=O)OC(C)OC(=O)OC3CCC3)N3C(=O)[C@@H](NC(=O)/C(=N\O)c4csc(N)n4)[C@H]3SC2)s1.Cl` (stereo partly drawn) [Ex.5, 1-(Cyclobutyloxycarbonyloxy)ethyl 7β-[2-(2-aminothiazol-4-yl)-(Z)-2-hydroxyiminoacetamido]-3-[(2-methyl-1,3,4-thiadiazol-5-yl)thiomethyl]-3-cephem-4-carboxylate hydrochloride]: in assay [1], the ED50 is 14 mg/kg.

On to `CCC(CC)OC(=O)OC(C)OC(=O)C1=C(CSc2nnc(C)s2)CS[C@@H]2[C@H](NC(=O)/C(=N\O)c3csc(N)n3)C(=O)N12.Cl` (stereo partly drawn) [Ex.6, 1-(1-Ethylpropoxycarbonyloxy)ethyl 7β-[2-(2-aminothiazol-4-yl)-(Z)-2-hydroxyiminoacetamido]-3-[(2-methyl-1,3,4-thiadiazol-5-yl)thiomethyl]-3-cephem-4-carboxylate hydrochloride], for which the ED50 in assay [1] stood at 12.5 mg/kg.

With `Cc1nnc(SCC2=C(C(=O)O)N3C(=O)[C@@H](NC(=O)/C(=N\O)c4csc(N)n4)[C@H]3SC2)s1` [GB-A-1587941 Ex.16, 7β-[2-(2-aminothiazol-4-yl)-(Z)-2-hydroxyiminoacetamido]-3-[(2-methyl-1,3,4-thiadiazol-5-yl)thiomethyl]-3-cephem-4-carboxylic acid, reference compound], the ED50 is over 25 mg/kg in assay [1] and 1.25 mg/kg in the assay on Escherichia coli O-111.

For `Cc1nnc(SCC2=C(C(=O)OCOC(=O)C(C)(C)C)N3C(=O)[C@@H](NC(=O)/C(=N\O)c4csc(N)n4)[C@H]3SC2)s1` [JP-A-9698/1985 PR Ex.3, pivaloyloxymethyl ester of the said cephem carboxylic acid, reference compound], the figures for the ED50 (in assay [1]; with Escherichia coli O-111) were 22.3 mg/kg and 0.279 mg/kg, respectively.

As to `CCOC(=O)OC(C)OC(=O)C1=C(CSc2nnc(C)s2)CS[C@@H]2[C@H](NC(=O)/C(=N\O)c3csc(N)n3)C(=O)N12` (some centres unmarked) [JP-A-9698/1985 PR Ex.4, 1-(ethoxycarbonyloxy)ethyl ester of the said cephem carboxylic acid, reference compound], the ED50 in assay [1] was over 25 mg/kg; in the assay on Escherichia coli O-111, 0.349 mg/kg.
